This is an account of results in patent US20090270350A1, “Pyridinone Pyrazole Urea and Pyrimidinone Pyrazole Urea Derivatives” (PFIZER INC., priority 2006, published 2009).

Structures are written as SMILES. Where two headings read alike, the source gives them in different places.

This test addresses p38α (Homo sapiens, UniProt Q16539). In words: p38α/MK2 cascade assay. In kind it is biochemical. Conditions: read-out: p38a/MK2 Cascade 40 min Pre-Incuabtion (% Inhibition): IC50. The method, then:
The ability of compounds to inhibit activated p38α was determined in a p38α/MK-2 cascade assay format. The kinase activity of p38α is determined by its ability to phosphorylate/activate nonactive MK2 (54-400). Activation of MK-2 by p38α is measured by following the phosphorylation of a MK-2 specific peptide, Hsp27 peptide (FITC-KKKALSRQLSVAA). The phosphorylation of the Hsp27 peptide was quantified using the Caliper LabChip 3000. The kinase reactions were carried out in 20 mM HEPES pH 7.5, 10 mM MgCl2, 0.0005% Tween-20, 0.01% BSA, 1 mM DTT, and 2% DMSO. The inhibitors were varied between 1000-0.05 nM, while the Hsp27 peptide substrate, MgATP, and nonactive MK-2 (54-400) were held constant at 0.5 µM, 5 µM, and 1 nM, respectively. Inhibitors were preincubated with p38α for 40 minutes prior to initiating the reaction with peptide, MgATP, and MK-2. The kinase reactions were quenched after 60 minutes by the addition of stop buffer (180 mM HEPES, 30 mM EDTA, and 0.2% Coating Reagent-3).
The above protocol assay was used to determine the IC50 values for some of the compounds in the above Examples.
IC50 values were determined for the compounds listed in Table 2, using the same p38α/MK2 cascade assay used to determine the IC50 values for the compounds in Table 1. The compounds of Table 2 were prepared using methods similar to those listed in the Examples for compounds of Table 1.

The mark [1] stands for this setting: Table 2, same p38α/MK2 cascade assay, 40 minutes preincubation.
Setting [2] is: Table 1, inhibitors preincubated with p38α for 40 minutes, phosphorylation of Hsp27 peptide by MK-2, Caliper LabChip 3000.

Chain of p38α (Q16539 whole entry): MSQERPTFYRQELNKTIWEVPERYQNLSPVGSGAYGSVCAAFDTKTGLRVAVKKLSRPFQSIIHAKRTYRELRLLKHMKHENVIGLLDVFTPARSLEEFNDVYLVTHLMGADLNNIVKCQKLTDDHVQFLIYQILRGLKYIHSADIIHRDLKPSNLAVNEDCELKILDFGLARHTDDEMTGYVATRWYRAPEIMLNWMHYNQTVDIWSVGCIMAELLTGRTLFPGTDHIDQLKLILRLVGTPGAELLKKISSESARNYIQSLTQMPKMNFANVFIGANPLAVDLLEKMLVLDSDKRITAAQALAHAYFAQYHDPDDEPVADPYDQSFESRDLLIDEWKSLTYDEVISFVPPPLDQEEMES

In the case of `COC(=O)c1ccc(C)c(-n2c(SC)nc(OCc3ccccc3CNC(=O)Nc3cc(C(C)(C)C)nn3-c3ccc(C)cc3)cc2=O)c1` [Example 204, methyl 3-{4-[(2-{[({[3-tert-butyl-1-(4-methylphenyl)-1H-pyrazol-5-yl]amino}carbonyl)-amino]-methyl}-benzyl)oxy]-2-(methylthio)-6-oxopyrimidin-1(6H)-yl}-4-methylbenzoate], the IC50 under setting [1] is 26.3 nM. Still for that read-out and setting: the figure for `COc1ccc(Cn2c(C)cc(OCc3ccccc3CNC(=O)Nc3cc(C(C)(C)C)nn3-c3ccc(Cl)c(O)c3)c(Cl)c2=O)cc1` [Example 257, 1-[3-tert-butyl-1-(4-chloro-3-hydroxyphenyl)-1H-pyrazol-5-yl]-3-[2-({[3-chloro-1-(4-methoxybenzyl)-6-methyl-2-oxo-1,2-dihydro-pyridin-4-yl]oxy}methyl)benzyl]urea] is 4.7 nM; for `CSc1ccccc1Cn1c(C)cc(OCc2ccccc2CNC(=O)Nc2cc(C(C)(C)C)nn2-c2cccc(O)c2)c(Cl)c1=O` [Example 271, 1-[3-tert-butyl-1-(3-hydroxyphenyl)-1H-pyrazol-5-yl]-3-{2-[({3-chloro-6-methyl-1-[2-(methylthio)benzyl]-2-oxo-1,2-dihydropyridin-4-yl}oxy)methyl]benzyl}urea] it is 14.1 nM.

Turning to `COc1cccc(Cn2c(C)cc(OCc3ccccc3CNC(=O)Nc3cc(C(C)(C)C)nn3-c3ccc(O)cc3)c(Cl)c2=O)c1` [Example 51, 1-[3-tert-butyl-1-(4-hydroxyphenyl)-1H-pyrazol-5-yl]-3-[2-({[3-chloro-1-(3-methoxybenzyl)-6-methyl-2-oxo-1,2-dihydropyridin-4-yl]oxy}methyl)benzyl]urea], under setting [2], the IC50 turned out to be 5.8 nM. For `COc1cccc(Cn2c(C)cc(OCc3ccc(F)cc3CNC(=O)Nc3cc(C(C)(C)C)nn3-c3cccc(OCCO)c3)cc2=O)c1` [Example 37, 1-{3-tert-butyl-1-[3-(2-hydroxyethoxy)phenyl]-1H-pyrazol-5-yl}-3-[5-fluoro-2-({[1-(3-methoxybenzyl)-6-methyl-2-oxo-1,2-dihydropyridin-4-yl]oxy}methyl)benzyl]urea], the IC50 under setting [2] was 29.3 nM. `Cc1ccc(C(=O)NCCO)cc1-n1c(C)cc(OCc2ccccc2CNC(=O)Nc2cc(C(C)(C)C)nn2-c2cccc(OCCO)c2)c(Cl)c1=O` [Example 210, 3-[4-{[2-({[({3-tert-butyl-1-[3-(2-hydroxyethoxy)phenyl]-1H-pyrazol-5-yl}amino)carbonyl]amino}methyl)-benzyl]oxy}-3-chloro-6-methyl-2-oxopyridin-1(2H)-yl]-N-(2-hydroxyethyl)-4-methylbenzamide]: the IC50 under setting [1] is 2.9 nM. Take `COC(=O)c1ccc(C)c(-n2c(C)cc(OCc3ccccc3CNC(=O)Nc3cc(C(C)(C)C)nn3-c3ccc(Cl)c(O)c3)c(Cl)c2=O)c1` [Example 221, methyl 3-{4-[(2-{[({[3-tert-butyl-1-(4-chloro-3-hydroxy-phenyl)-1H-pyrazol-5-yl]amino}carbonyl)amino]-methyl}-benzyl)oxy]-3-chloro-6-methyl-2-oxopyridin-1(2H)-yl}-4-methylbenzoate]: the IC50 under setting [1] amounted to 10.5 nM. In the case of `COc1ccc(Cn2c(C)cc(OCc3ccccc3CNC(=O)Nc3cc(C(C)(C)C)nn3-c3ccc(Cl)c(O)c3)c(Cl)c2=O)cc1Cl` [Example 67, 1-[3-tert-butyl-1-(4-chloro-3-hydroxyphenyl)-1H-pyrazol-5-yl]-3-[2-({[3-chloro-1-(3-chloro-4-methoxybenzyl)-6-methyl-2-oxo-1,2-dihydropyridin-4-yl]oxy}methyl)benzyl]urea], under setting [2], the IC50 was found to be 7.9 nM.

In the case of `COc1ccc(Cn2c(C)cc(OCc3ccccc3CNC(=O)Nc3cc(C(C)(C)C)nn3-c3ccc(O)cc3)cc2=O)cc1` [Example 54, 1-[3-tert-butyl-1-(4-hydroxyphenyl)-1H-pyrazol-5-yl]-3-[2-({[1-(4-methoxybenzyl)-6-methyl-2-oxo-1,2-dihydropyridin-4-yl]oxy}methyl)benzyl]urea], the IC50 under setting [2] stood at 117 nM. In the case of `CNC(=O)c1ccc(C)c(-n2c(C)cc(OCc3ccccc3CNC(=O)Nc3cc(C(C)(C)C)nn3-c3ccc(Cl)c(O)c3)c(Cl)c2=O)c1` [Example 226, 3-{4-[(2-{[({[3-tert-butyl-1-(4-chloro-3-hydroxyphenyl)-1H-pyrazol-5-yl]amino}carbonyl)amino]methyl}benzyl)oxy]-3-chloro-6-methyl-2-oxopyridin-1(2H)-yl}-N,4-dimethylbenzamide], the IC50 under setting [1] came out at 3.6 nM.

For the compound `COc1cccc(-n2nc(C(C)(C)C)cc2NC(=O)NCc2ccccc2COc2cc(C)n(Cc3ccccc3)c(=O)c2Br)c1` [Example 109, 1-(2-{[(1-benzyl-3-bromo-6-methyl-2-oxo-1,2-dihydropyridin-4-yl)oxy]methyl}benzyl)-3-[3-tert-butyl-1-(3-methoxyphenyl)-1H-pyrazol-5-yl]urea], under setting [2], the IC50 is 6.38 nM. Same read-out and setting: for `COc1cccc(-n2nc(C(C)(C)C)cc2NC(=O)NCc2ccccc2COc2cc(C)n(Cc3ccc(OC)cc3OC)c(=O)c2Br)c1` [Example 119, 1-[2-({[3-bromo-1-(2,4-dimethoxybenzyl)-6-methyl-2-oxo-1,2-dihydropyridin-4-yl]oxy}methyl)benzyl]-3-[3-tert-butyl-1-(3-methoxyphenyl)-1H-pyrazol-5-yl]urea] the value was 11.9 nM; for `Cc1ccc(-n2nc(C(C)(C)C)cc2NC(=O)NCc2ccccc2COc2cc(C)n(Cc3ccccc3)c(=O)c2Br)cc1` [Example 106, 1-(2-{[(1-benzyl-3-bromo-6-methyl-2-oxo-1,2-dihydropyridin-4-yl)oxy]methyl}benzyl)-3-[3-tert-butyl-1-(4-methylphenyl)-1H-pyrazol-5-yl]urea], 4.59 nM. For the compound `Cc1cc(OCc2ccccc2CNC(=O)Nc2cc(C(C)(C)C)nn2-c2ccc(Cl)c(O)c2)c(Cl)c(=O)n1Cc1ccc(CNC(=O)CN)cc1` [Example 272, N-[4-({4-[(2-{[({[3-tert-butyl-1-(4-chloro-3-hydroxyphenyl)-1H-pyrazol-5-yl]amino}carbonyl)amino]methyl}benzyl)oxy]-3-chloro-6-methyl-2-oxopyridin-1(2H)-yl}methyl)benzyl]-glycinamide], the IC50 under setting [1] was 2.4 nM. Still for that read-out and setting: the figure for `COc1ccc(Cn2c(C)cc(OCc3ccccc3CNC(=O)Nc3cc(C(C)(C)C)nn3-c3ccc(O)cc3)c(C)c2=O)cc1C#N` [Example 253, 1-[3-tert-butyl-1-(4-hydroxyphenyl)-1H-pyrazol-5-yl]-3-[2-({[1-(3-cyano-4-methoxybenzyl)-3,6-dimethyl-2-oxo-1,2-dihydropyridin-4-yl]oxy}methyl)benzyl]urea] is 8.3 nM; for `CSc1ccccc1Cn1c(C)cc(OCc2ccccc2CNC(=O)Nc2cc(C(C)(C)C)nn2-c2cccc(OCCO)c2)c(Cl)c1=O` [Example 269, 1-{3-tert-butyl-1-[3-(2-hydroxyethoxy)phenyl]-1H-pyrazol-5-yl}-3-{2-[({3-chloro-6-methyl-1-[2-(methylthio)benzyl]-2-oxo-1,2-dihydropyridin-4-yl}oxy)methyl]benzyl}urea] it is 20.4 nM; for `COCCNC(=O)c1ccc(C)c(-n2c(C)cc(OCc3ccccc3CNC(=O)Nc3cc(C(C)(C)C)nn3-c3ccc(O)c(Cl)c3)c(Cl)c2=O)c1` [Example 225, 3-{4-[(2-{[({[3-tert-butyl-1-(3-chloro-4-hydroxyphenyl)-1H-pyrazol-5-yl]amino}carbonyl)amino]methyl}benzyl)oxy]-3-chloro-6-methyl-2-oxopyridin-1(2H)-yl}-N-(2-methoxyethyl)-4-methylbenzamide] it is 3.03 nM.
